Assay results: patent publication US12221432B2, “Estrogen receptor antagonist” (CHIA TAI TIANQING PHARMACEUTICAL GROUP CO., LTD., priority 2018, dated 2025)
Where a name gives a salt, the structure may show the parent alone.

Experiments:
uterine growth = assay: Uterine wet weight inhibition in immature rats; assay type: in vivo, female immature rats; settings: oral, three consecutive days
Protocol: This study was intended to evaluate the uterine growth inhibition of compounds of the present application in female immature rats aged 18-21 days (provided by Beijing Vital River Laboratory Animal Technology Co., Ltd., with the number of test animals in each experimental group being 5). In this study, 18-day-old female immature rats were given oral doses of 10 mg/kg of the compound of the present application and 0.1 mg/kg of estradiol for three consecutive days, the control group was given oral doses of 0.1 mg/kg of estradiol for three consecutive days, and the blank group was given no drugs except the corresponding vehicle. Three days after the administration, the rats were sacrificed, and the uteruses of the rats were weighed to observe the effect of the test compound on the uterine growth inhibition in rats. Inhibition rate=100*[(VehicleEE−Cpd)/(VehicleEE−Vehicle)], wherein VehicleEE is uterine wet weight in the control group (oral doses of 0.1 mg/kg estradiol); Cpd is the uterine wet weight of the treatment group; Vehicle is the uterine wet weight of rats in the blank group.

MCF-7 cells = assay: MCF-7 cell proliferation inhibition; assay type: cell-based; settings: 6 days incubation, CellTiter-Glo; read-out: IC50 for MCF-7 cell proliferation inhibition
Protocol: EMEM medium was purchased from Wisent, and fetal bovine serum was purchased from Biosera. Promega CellTiter-Glo reagent. MCF-7 cells were purchased from the Cell Bank of Type Culture Collection Committee of the Chinese Academy of Sciences. Nivo5 multi-marker analyzer (PerkinElmer).
MCF-7 cells were seeded in a white 384-well plate at 600 cells/[…] suspension/well. The plate was incubated in a CO2 incubator overnight.
On the day of treatment, a day 0 plate coated under the same conditions the day before was taken, centrifuged to remove the medium, added with 25 microliters of Promega CellTiter-Glo reagent to each well, and incubated at room temperature for 10 minutes to stabilize the luminescence signal. Measures were read by PerkinElmer Nivo multi-marker analyzer as an initial value for 0% inhibition.
The test compounds were serially 5-fold diluted to the 10th concentration with a multichannel pipette, i.e., from 2 millimoles to […], and the experiments were set up in duplicate. 47.5 microliters of medium was added to the intermediate plate, 2.5 microliters of serially diluted compounds were transferred to corresponding wells of the intermediate plate, and after mixing, 5 microliters of the mixture per well was transferred to the cell plate. The plate was incubated in a CO2 incubator for 6 days.
After 6 days of co-incubation with the compounds, the plate was centrifuged to remove the medium, added with 25 microliters of Promega CellTiter-Glo reagent to each well, and incubated at room temperature for 10 minutes to stabilize the luminescence signal. Measures were read by PerkinElmer Nivo multi-marker analyzer.
The original data was converted into inhibition rate by the formula: % inhibition=((RFUCmpd−AVER(RFUNeg.Ctrl))/((AVER(RFUDay0)−AVER(RFUNeg.Ctrl))×100%. Curve fitting was conducted and IC50 was calculated.

breast cancer = settings: intramuscular injection, breast cancer patients; cited from earlier work
[1] = cited from earlier work
[2] = Pharmacokinetics study in mice (cassette); assay type: in vivo; settings: female, Balb/c, plasma, mouse cassette PK
Source text: (§1) Objective: To determine the drug concentration in the plasma of the mice at different times after intravenous and oral administration of the test compounds by LC/MS/MS using female Balb/c mice as the test animals. To investigate the pharmacokinetic performance of the test compounds in mice and to evaluate the pharmacokinetic characteristics.
Test animals: 4 healthy female Balb/c mice were divided into 2 groups according to the principle of similar weight, 2 in the IV group and 2 in the PO group. The animals were purchased from Shanghai Lingchang Biotechnology Co., Ltd.
(§2) IV group: Appropriate amounts of compounds were weighed respectively, prepared into 2 mg/mL solutions, then mixed to give a 0.5 mg/mL solution, which was stirred and ultrasonicated until a clear state. The vehicle was 15% HP-b-CD.
(§3) PO group: An appropriate amount of the IV group solution was taken and diluted to 0.4 mg/mL with 15% HP-b-CD.
(§4) Administration: After fasting overnight, the IV group was administered intravenously, and the dose of the test compound was 1 mg/kg; the PO group was administered intragastrically, and the dose of the test compound was 2 mg/kg.
(§5) Procedures: For IV group, 30 μL of blood was collected from the saphenous vein of the female Balb/c mice at 0.0833, 0.25, 0.5, 1, 2, 4, 8, and 24 hours post-dose, and placed in a commercial anticoagulant tube with EDTA-K2 added in advance. For PO group, 30 μL of blood was collected from the saphenous vein of the female Balb/c mice at 0.25, 0.5, 1, 2, 4, 8, 12 and 24 hours post-dose, and placed in a commercial anticoagulant tube with EDTA-K2 added in advance. The blood samples were centrifuged (3,200 g, 4° C., 10 minutes) to give plasma samples, which was transferred to a pre-cooled centrifuge tube, frozen in dry ice, and stored in an ultra-low temperature freezer at −60° C. or lower until the LC-MS/MS analysis. The animals were given free access to food 4 hours after the administration. LC/MS/MS method was used to determine the content of the test compounds in the plasma of mice after intravenous and oral administration. The linear range of the method is 2.00-2000 nM.

[3] = Pharmacokinetics study in rats (cassette); assay type: in vivo; settings: female, SD, plasma, rat cassette PK
Source text: as §1, with “Experimental objective:” for “Objective:”, “rats” for “mice”, “SD rats” for “Balb/c mice”
Test animals: 4 healthy female SD rats were divided into 2 groups according to according to the principle of similar weight, 2 in the IV group and 2 in the PO group. Animal used in this study were purchased from Beijing Vital River Laboratory Animal Technology Co., Ltd.
as §2, §3, §4
as §5, with “200” for “30”, “jugular” for “saphenous”, “SD rats” for “Balb/c mice”

[4] = tested on: MCF-7 breast cancer cell xenograft; assay: In vivo efficacy, MCF-7 breast cancer xenograft; set-up: species or system BALB/c nude mice; settings: for Tumor volume 27 days after grouping: Mean ± SEM; for T/C / TGI: day 27
Protocol: This study was intended to evaluate the anti-tumor efficacy of compounds of the present application in MCF-7 breast cancer cell xenograft BALB/c nude mice (provided by Beijing Vital River Laboratory Animal Technology Co., Ltd., with the number of test animals in each experimental group being 7).
Three days before the xenograft, the mice were inoculated with 0.36 mg of 60-day sustained-release estrogen tablets subcutaneously on the left shoulder. In the logarithmic growth phase, the cells were collected and counted. The cell density was adjusted to 10×10^7 cells/mL, added with an equal volume of Matrigel and mixed for inoculation. Each mouse was xenografted subcutaneously with 0.2 mL of MCF-7 tumor cell suspension (10×10^6) on the right shoulder. On the 14th day after tumor cell xenograft, the mice were grouped and administered the drugs once a day, with an average tumor volume of 200 mm^3 and a body weight of 22.0-23.0 g. Tumor volume and body weight were measured twice a week after grouping. The tumor growth rate (T/C) and tumor growth inhibition rate (TGI) were calculated for the last tumor measurement data on the 27th day after grouping, and the anti-tumor efficacy of the compound was evaluated by TGI (%) or relative tumor proliferation rate T/C (%). TGI (%), reflects the tumor growth inhibition rate. TGI (%)=[(1-(average tumor volume at the end of treatment in a treatment group—average tumor volume at the start of treatment in the treatment group))/(average tumor volume at the end of treatment in the solvent control group—average tumor volume at the start of treatment in the solvent control group)]×100%, relative tumor proliferation rate T/C (%)=TRTV/CRTV×100% (TRTV: average RTV in the treatment group; CRTV: average RTV in the negative control group). Relative tumor volume (RTV) was calculated based on the results of tumor measurement. The formula is RTV=Vt/V0, wherein V0 is the tumor volume measured when grouping and administering (i.e., D0), and Vt is the tumor volume at a certain measurement, the data of TRTV and CRTV should be measured on the same day.

[5] = iv, i.v. 1 mg/kg, read-out: Vdss

## CC/C(=C(/c1ccc(OCCNC/C=C/C(=O)N(C)C)nc1)c1[nH]c2ccccc2c1Cl)c1ccc(F)cc1Cl [Compound 1]
Uterine growth; 10 mg/kg + estradiol 0.1 mg/kg
  Inhibition rate: 75%
  Uterine wet weight: 0.0672 g
MCF-7 cells
  IC50: 1.41 nM

## C[C@]12CC[C@@H]3c4ccc(O)cc4C[C@@H](CCCCCCCCC[S+]([O-])CCCC(F)(F)C(F)(F)F)[C@H]3[C@@H]1CC[C@@H]2O (stereo partly drawn) [fulvestrant]
Breast cancer
  clinical response rate: about 50%
[1]
  bioavailability via oral administration: zero

## CC/C(=C(/c1ccc(OCCNC/C=C/C(=O)N(C)C)nc1)c1[nH]c2ccccc2c1Cl)c1cccc(OC)c1 [Compound 4 monohydrochloride]
[2]; iv, i.v. 1 mg/kg
  AUC(0-t): 1.1 µM·h
  clearance: 26 mL/min/kg
  half-life: 111 min
[2]; [5]
  Vd: 3.45 L/kg
[2]; po, p.o. 2 mg/kg
  AUC(0-t): 0.503 µM·h
  Cmax: 159 nM
  Tmax: 15 min
  bioavailability: 22.9%
  half-life: 195 min
[3]; iv, i.v. 1 mg/kg
  AUC(0-t): 1.9 µM·h
  clearance: 15.8 mL/min/kg
  half-life: 239 min
[3]; [5]
  Vd: 4.86 L/kg
[3]; po, p.o. 2 mg/kg
  AUC(0-t): 1.84 µM·h
  Cmax: 233 nM
  Tmax: 2 h
  bioavailability: 48.4%
  half-life: 196 min
[4]; 3 mg/kg once a day
  Tumor volume 27 days after grouping: 396 ± 58 mm^3
  T/C: 28.74%
  TGI: 83%
[4]; 10 mg/kg once a day
  Tumor volume 27 days after grouping: 124 ± 5 mm^3
  T/C: 9.32%
  TGI: 106%

## C[C@]12CC[C@@H]3c4ccc(O)cc4CC[C@H]3[C@@H]1CC[C@@H]2O [Estradiol, estradiol, reference compound]
Uterine growth; estradiol alone (control group)
  Uterine wet weight: 0.1200 g
